Measured values from ChEMBL document CHEMBL2150972, “Hepatitis C virus protease inhibitors: patent highlight” (ACS Med Chem Lett, 2012).

Tests used:
Hepatitis C virus [1] = assay: Antiviral activity against HCV by HCVSPF-CY1B assay; assay type: functional, organism-based, Hepacivirus hominis
Hepatitis C virus [2] = assay: Antiviral activity against HCV assessed as inhibition of viral RNA replication by cell based luciferase reporter gene assay; assay type: functional, organism-based, Hepacivirus hominis

EC50 (Hepatitis C virus [1]) [nM] | EC50 (Hepatitis C virus [2]) [nM] | SMILES
34 | – | CCOc1cc(O[C@@H]2C[C@H]3C(=O)N[C@]4(C(=O)NS(=O)(=O)C5CC5)C[C@H]4/C=C/CC[C@@H]4CC4[C@H](NC(=O)c4ccn(C)n4)C(=O)N3C2)ccn1 (some centres not stated)
– | 290 | O=C(N[C@H]1CCCCC/C=C/[C@@H]2C[C@@]2(C(=O)NS(=O)(=O)C2CC2)NC(=O)[C@@H]2C[C@@H](Oc3ccncc3)CN2C1=O)OCCF
